Reference: ChEMBL document CHEMBL4373744, “Modifying the lipophilic part of phenylthiazole antibiotics to control their drug-likeness” (Eur J Med Chem, 2020)
Activity calls are given as the source filed them.

Assays:
Streptococcus pneumoniae [1] = assay: Antimicrobial activity against methicillin-resistant Streptococcus pneumoniae ATCC 700677 by broth liquid microdilution method; assay type: functional
Staphylococcus aureus [2] = assay: microbe, parasite or virus in culture; conditions: NRS123
Description: Antimicrobial activity against methicillin-resistant Staphylococcus aureus NRS123 by broth liquid microdilution method

Staphylococcus aureus [3] = assay: Antibiofilm activity against methicillin-resistant Staphylococcus aureus USA300 at 4 times MIC incubated for 24 hrs by crystal violet staining based assay relative to control; assay type: functional
Staphylococcus aureus [4] = assay: Antimicrobial activity against methicillin-resistant Staphylococcus aureus USA400 infected in mouse J774 cells assessed as reduction in […] bacterial count at 4 times MIC incubated for 24 hrs relative to control; assay type: functional; set-up: scale not given: the % may be the effect or the level left
J774 = assay: Cytotoxicity against mouse J774 cells assessed as reduction in cell viability at 4 to 8 ug/ml incubated for 24 hrs by MTS assay; assay type: cell-based; conditions: j774, 24 h
Staphylococcus aureus [5] = assay: microbe, parasite or virus in culture; conditions: NRS384
Description: Antimicrobial activity against methicillin-resistant Staphylococcus aureus NRS384 by broth liquid microdilution method

Staphylococcus aureus [6] = assay: microbe, parasite or virus in culture; conditions: NRS 385
Description: Antimicrobial activity against methicillin-resistant Staphylococcus aureus NRS 385 by broth liquid microdilution method

Staphylococcus aureus [7] = assay: Antimicrobial activity against vancomycin-resistant Staphylococcus aureus 10 by broth liquid microdilution method; assay type: functional
Enterococcus faecalis = assay: microbe, parasite or virus in culture; conditions: ATCC 51299
Enterococcus faecium = assay: Antimicrobial activity against vancomycin-resistant Enterococcus faecium ATCC 700221 by broth liquid microdilution method; assay type: functional
Staphylococcus aureus [8] = assay: microbe, parasite or virus in culture; conditions: ATCC 6538
Description: Antimicrobial activity against methicillin-sensitive Staphylococcus aureus ATCC 6538 by broth liquid microdilution method

Listeria monocytogenes = assay: Antimicrobial activity against Listeria monocytogenes ATCC 19111 by broth liquid microdilution method; assay type: functional
Staphylococcus aureus [9] = assay: microbe, parasite or virus in culture; conditions: NRS 386
Description: Antimicrobial activity against methicillin-resistant Staphylococcus aureus NRS 386 by broth liquid microdilution method

Staphylococcus aureus [10] = assay: microbe, parasite or virus in culture; conditions: NRS119
Description: Antimicrobial activity against methicillin-resistant Staphylococcus aureus NRS119 by broth liquid microdilution method

Streptococcus pneumoniae [11] = assay: Antimicrobial activity against cephalosporin-resistant Streptococcus pneumoniae ATCC 51916 by broth liquid microdilution method; assay type: functional
Staphylococcus aureus [12] = assay: Bactericidal activity against methicillin-resistant Staphylococcus aureus USA400 assessed as reduction in number of colony forming units at 5 times MIC incubated for 10 hrs by aliquots transfer to tryptic soy agar and grown for 18 to 20 hrs by Time-kill assay relative to control; assay type: functional; set-up: scale not given: the % may be the effect or the level left
Staphylococcus aureus [13] = assay: Antimicrobial activity against vancomycin-resistant Staphylococcus aureus 12 by broth liquid microdilution method; assay type: functional
Staphylococcus aureus [14] = assay: microbe, parasite or virus in culture; conditions: NRS 107
Description: Antimicrobial activity against methicillin-sensitive Staphylococcus aureus NRS 107 by broth liquid microdilution method

Staphylococcus aureus [15] = assay: Antibiofilm activity against methicillin-resistant Staphylococcus aureus USA300 incubated for 24 hrs by crystal violet staining based assay; assay type: functional, organism-based
Staphylococcus aureus [16] = assay: Antimicrobial activity against methicillin-resistant Staphylococcus aureus USA400 infected in mouse J774 cells assessed as reduction in […] bacterial count at 2 times MIC incubated for 24 hrs relative to control; assay type: functional; set-up: scale not given: the % may be the effect or the level left
[17] = tested on: Staphylococcus epidermidis; assay: Antimicrobial activity against methicillin-resistant Staphylococcus epidermidis NRS101 by broth liquid microdilution method; assay type: functional
Staphylococcus aureus [18] = assay: Antibiofilm activity against methicillin-resistant Staphylococcus aureus USA300 at 2 times MIC incubated for 24 hrs by crystal violet staining based assay relative to control; assay type: functional
Staphylococcus aureus [19] = assay: Bactericidal activity against methicillin-resistant Staphylococcus aureus USA400 assessed as reduction in number of colony forming units at 5 times MIC incubated for 24 hrs by aliquots transfer to tryptic soy agar and grown for 18 to 20 hrs by Time-kill assay; assay type: functional, organism-based
Caco-2 = assay: Cytotoxicity against human Caco2 cells assessed as reduction in cell viability at 64 ug/ml by MTS assay relative to control
Escherichia coli [20] = assay: Antimicrobial activity against Escherichia coli BW25113 by broth liquid microdilution method; assay type: functional
Escherichia coli [21] = assay: Antimicrobial activity against Escherichia coli JW55031 harboring deltatolC mutant by broth liquid microdilution method; assay type: functional
Staphylococcus aureus [22] = assay: Bactericidal activity against methicillin-resistant Staphylococcus aureus USA400 assessed as 3 log reduction in number of colony forming units at 5 times MIC incubated for 10 hrs by aliquots transfer to tryptic soy agar and grown for 18 to 20 hrs by Time-kill assay relative to control; assay type: functional; set-up: scale not given: the % may be the effect or the level left

C/C(=N\NC(=N)N)c1sc(-c2ccc(C#CCCN3CC(O)C3)cc2)nc1C
Non-Toxic: Activity (J774)
31%: Activity (Staphylococcus aureus [18])
16 µg/mL: MBC (Streptococcus pneumoniae [1]) | MBC (Enterococcus faecalis) | MBC (Enterococcus faecium) | MBC (Streptococcus pneumoniae [11]) | MBC [17]
99%: Activity (Staphylococcus aureus [4])
72%: Activity (Staphylococcus aureus [3])
100%: Activity (Staphylococcus aureus [12])
4 µg/mL: MIC (Streptococcus pneumoniae [1]) | MIC (Staphylococcus aureus [2]) | MBC (Staphylococcus aureus [5]) | MIC (Staphylococcus aureus [5]) | MBC (Staphylococcus aureus [6]) | MIC (Staphylococcus aureus [6]) | MIC (Staphylococcus aureus [7]) | MIC (Enterococcus faecium) | MBC (Staphylococcus aureus [8]) | MIC (Staphylococcus aureus [8]) | MIC (Listeria monocytogenes) | MIC (Staphylococcus aureus [9]) | MIC (Staphylococcus aureus [10]) | MIC (Streptococcus pneumoniae [11]) | MIC (Staphylococcus aureus [13]) | MBC (Staphylococcus aureus [14]) | MIC (Staphylococcus aureus [14])
2 µg/mL: MIC [17]
8 µg/mL: MBC (Staphylococcus aureus [2]) | MBC (Staphylococcus aureus [7]) | MIC (Enterococcus faecalis) | MBC (Staphylococcus aureus [9]) | MBC (Staphylococcus aureus [10]) | MBC (Staphylococcus aureus [13])
32 µg/mL: MBC (Listeria monocytogenes)
active: Activity (Staphylococcus aureus [15]) Dose-dependent effect
55%: Activity (Staphylococcus aureus [16])

C/C(=N\NC(=N)N)c1sc(-c2ccc(C#CCCn3ccnc3)cc2)nc1C
81%: Activity (Staphylococcus aureus [3])
99.9%: Activity (Staphylococcus aureus [22])
8 µg/mL: MBC (Staphylococcus aureus [2]) | MBC (Staphylococcus aureus [7]) | MIC (Enterococcus faecalis) | MIC (Listeria monocytogenes) | MIC (Staphylococcus aureus [10]) | MIC (Streptococcus pneumoniae [11]) | MBC (Staphylococcus aureus [14])
16 µg/mL: MBC (Streptococcus pneumoniae [1]) | MBC (Staphylococcus aureus [5]) | MBC (Staphylococcus aureus [6]) | MBC (Enterococcus faecium) | MBC (Staphylococcus aureus [8]) | MBC (Staphylococcus aureus [9]) | MBC (Streptococcus pneumoniae [11]) | MIC (Escherichia coli [21]) | MBC (Staphylococcus aureus [13]) | MBC [17]
> 64 µg/mL: MIC (Escherichia coli [20])
70%: Activity (Caco-2)
active: Activity (Staphylococcus aureus [19]) | Activity (Staphylococcus aureus [15]) Dose-dependent effect
65%: Activity (Staphylococcus aureus [18])
4 µg/mL: MIC (Streptococcus pneumoniae [1]) | MIC (Staphylococcus aureus [2]) | MIC (Staphylococcus aureus [5]) | MIC (Staphylococcus aureus [6]) | MIC (Staphylococcus aureus [7]) | MIC (Enterococcus faecium) | MIC (Staphylococcus aureus [8]) | MIC (Staphylococcus aureus [9]) | MIC (Staphylococcus aureus [13]) | MIC (Staphylococcus aureus [14]) | MIC [17]
32 µg/mL: MBC (Enterococcus faecalis) | MBC (Listeria monocytogenes) | MBC (Staphylococcus aureus [10])
